The target of assay [1] is T1, human TLR9 (Homo sapiens, UniProt Q9NR96).
T1 construct: host or cells: HEK-Blue cells
T1 sequence (Q9NR96 26-1032): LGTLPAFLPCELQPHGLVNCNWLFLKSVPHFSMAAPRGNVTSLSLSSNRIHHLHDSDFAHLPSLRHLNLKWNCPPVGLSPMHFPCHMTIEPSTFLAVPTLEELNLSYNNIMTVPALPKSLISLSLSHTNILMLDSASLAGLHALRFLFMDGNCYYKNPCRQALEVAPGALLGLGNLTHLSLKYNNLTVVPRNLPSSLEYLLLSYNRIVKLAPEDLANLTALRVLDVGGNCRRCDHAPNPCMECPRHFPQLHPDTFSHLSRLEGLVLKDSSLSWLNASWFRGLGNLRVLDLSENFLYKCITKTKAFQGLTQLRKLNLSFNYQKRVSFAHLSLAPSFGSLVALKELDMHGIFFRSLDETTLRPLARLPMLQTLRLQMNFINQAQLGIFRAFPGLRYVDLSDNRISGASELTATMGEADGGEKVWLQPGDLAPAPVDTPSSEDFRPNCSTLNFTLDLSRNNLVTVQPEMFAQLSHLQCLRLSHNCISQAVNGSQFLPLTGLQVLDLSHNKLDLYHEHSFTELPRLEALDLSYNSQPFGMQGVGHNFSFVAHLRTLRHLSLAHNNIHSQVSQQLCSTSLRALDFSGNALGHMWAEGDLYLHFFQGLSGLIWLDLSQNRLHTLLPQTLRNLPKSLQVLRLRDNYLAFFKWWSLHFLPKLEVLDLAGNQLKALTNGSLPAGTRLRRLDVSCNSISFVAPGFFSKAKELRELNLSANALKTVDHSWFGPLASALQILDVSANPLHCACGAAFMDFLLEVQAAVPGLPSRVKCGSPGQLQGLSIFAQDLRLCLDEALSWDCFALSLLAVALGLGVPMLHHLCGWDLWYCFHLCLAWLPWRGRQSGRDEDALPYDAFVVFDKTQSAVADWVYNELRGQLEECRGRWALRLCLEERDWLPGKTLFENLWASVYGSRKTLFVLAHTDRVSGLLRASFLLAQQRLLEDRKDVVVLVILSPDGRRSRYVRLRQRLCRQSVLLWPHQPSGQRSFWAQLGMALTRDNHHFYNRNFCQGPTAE
The assay is described as follows: TLR9 inhibition reporter assay (HEK-Blue cells, SEAP reporter, ODN2006 stimulation). In kind it is cell-based. The conditions noted are these: HEK-Blue cells overexpressing human TLR9, ODN2006 5 nM. Put shortly:
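Screening used HEK-Blue cells overexpressing one human TLR (7, 8 or 9) and an IFN-β minimal promoter–NF-κB/AP-1 SEAP construct. Stimulation lasted 22 h at 37 °C with receptor-specific agonist: gardiquimod, R848 or ODN2006 at 7.5 μM, 15.9 μM and 5 nM.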
For orientation: In a reporter assay the amount or activity of a reporter protein is the signal.

In assay [2] the target is T2, human TLR7 (Homo sapiens, UniProt Q9NYK1).
T2 construct: host or cells: HEK-Blue cells
T2 sequence (Q9NYK1 27-1049): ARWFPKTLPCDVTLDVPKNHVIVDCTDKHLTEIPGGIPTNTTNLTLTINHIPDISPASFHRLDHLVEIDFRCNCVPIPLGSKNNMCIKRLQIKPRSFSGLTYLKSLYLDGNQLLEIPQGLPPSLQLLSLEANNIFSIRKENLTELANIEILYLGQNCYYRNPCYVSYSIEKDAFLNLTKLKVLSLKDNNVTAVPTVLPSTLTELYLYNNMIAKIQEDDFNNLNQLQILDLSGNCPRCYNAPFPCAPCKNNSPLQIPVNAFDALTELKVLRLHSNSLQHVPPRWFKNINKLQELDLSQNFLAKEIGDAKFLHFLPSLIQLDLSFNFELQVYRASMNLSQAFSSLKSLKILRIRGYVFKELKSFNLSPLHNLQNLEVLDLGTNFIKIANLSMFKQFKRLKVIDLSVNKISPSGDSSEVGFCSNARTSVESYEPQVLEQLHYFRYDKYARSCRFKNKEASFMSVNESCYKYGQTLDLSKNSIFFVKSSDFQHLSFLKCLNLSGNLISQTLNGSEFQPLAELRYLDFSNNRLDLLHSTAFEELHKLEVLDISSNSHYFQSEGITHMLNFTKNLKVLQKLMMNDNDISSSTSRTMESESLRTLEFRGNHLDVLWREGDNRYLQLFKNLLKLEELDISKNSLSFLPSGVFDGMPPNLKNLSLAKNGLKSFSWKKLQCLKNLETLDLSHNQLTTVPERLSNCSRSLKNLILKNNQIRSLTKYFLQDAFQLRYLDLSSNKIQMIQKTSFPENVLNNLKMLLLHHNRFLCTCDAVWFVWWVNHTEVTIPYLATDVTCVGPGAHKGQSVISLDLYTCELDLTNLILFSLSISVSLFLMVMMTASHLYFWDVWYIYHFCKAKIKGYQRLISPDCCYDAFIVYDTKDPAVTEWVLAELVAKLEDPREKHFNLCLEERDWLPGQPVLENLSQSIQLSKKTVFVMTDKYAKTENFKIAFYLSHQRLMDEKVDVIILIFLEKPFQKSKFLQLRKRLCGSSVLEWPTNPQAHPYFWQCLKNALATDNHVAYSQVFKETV
The assay is described as follows: TLR7 inhibition reporter assay (HEK-Blue cells, SEAP reporter, gardiquimod stimulation). It counts as cell-based. The note with it: HEK-Blue cells overexpressing human TLR7, gardiquimod 7.5 μM. Put shortly: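 Dose-response testing from 0.05 nM to 50 μM final was done on reporter cells for 22 hours at 37° C. Secreted SEAP was then detected, and inhibition was calculated as percent reduction of the agonist-plus-DMSO signal compared with wells given a known inhibitor.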

A value given as a limit tells only on which side of the number the result lay.

As usually defined, the IC50 is the point on the concentration scale where inhibition reaches its midpoint. A lower IC50 goes with greater potency. In the case of `COc1ccc(-c2[nH]c3ccc(C4CCN(C(=O)CCC(N)=O)CC4)cc3c2CC(F)(F)F)cc1OC` [Example 333, 4-(4-(2-(3,4-dimethoxyphenyl)-3-(2,2,2-trifluoroethyl)-1H-indol-5-yl)piperidin-1-yl)-4-oxobutanamide], the results for the IC50 in assay [1] and in assay [2] were not below 50000 nM and 94 nM, respectively.

`COc1ccc(-c2[nH]c3ccc(C4CCN(CC(=O)N(C)CCN(C)C)CC4)cc3c2CC(F)(F)F)cc1OC` [Example 367, 2-(4-(2-(3,4-dimethoxyphenyl)-3-(2,2,2-trifluoroethyl)-1H-indol-5-yl)piperidin-1-yl)-N-(2-(dimethylamino)ethyl)-N-methylacetamide]: the IC50 in assay [1] came to 441 nM; in assay [2], 23 nM.

For the compound `COc1ccc(-c2[nH]c3ccc(C4CCN(CC(=O)NCCCn5ccnc5)CC4)cc3c2CC(F)(F)F)cc1OC` [Example 383, N-(3-(1H-imidazol-1-yl)propyl)-2-(4-(2-(3,4-dimethoxyphenyl)-3-(2,2,2-trifluoroethyl)-1H-indol-5-yl)piperidin-1-yl)acetamide], the IC50 in assay [1] came out at 660 nM; in assay [2], 13 nM.

With `COc1ccc(-c2[nH]c3ccc(C4CCNCC4F)cc3c2C(C)C)cc1OC` (single isomer, unassigned) [Example 323, 2-(3,4-dimethoxyphenyl)-5-(3-fluoropiperidin-4-yl)-3-isopropyl-1H-indole], the figures for the IC50 in assay [1] and in assay [2] were 2870 nM and 42 nM, respectively.

Consider `COc1ccc(-c2[nH]c3ccc(C4CCN(C(=O)Cc5c[nH]cn5)CC4)cc3c2CC(F)(F)F)cc1OC` [Example 334, 1-(4-(2-(3,4-dimethoxyphenyl)-3-(2,2,2-trifluoroethyl)-1H-indol-5-yl)piperidin-1-yl)-2-(1H-imidazol-4-yl)ethan-1-one], for which the IC50 in assay [1] was found to be 7770 nM; in assay [2], 130 nM.

On to `COc1ccc(-c2[nH]c3ccc(C4CCN(CC(=O)N5CCC(N(C)C)CC5)CC4)cc3c2CC(F)(F)F)cc1OC` [Example 364, 2-(4-(2-(3,4-dimethoxyphenyl)-3-(2,2,2-trifluoroethyl)-1H-indol-5-yl)piperidin-1-yl)-1-(4-(dimethylamino)piperidin-1-yl)ethan-1-one], for which the figures for the 50% inhibitory concentration (IC50) in assay [1] and in assay [2] were 563 nM and 23 nM, respectively.

`COc1ccc(-c2[nH]c3ccc(C4CCN(C(=O)C[C@@H](C)O)CC4)cc3c2CC(F)(F)F)cc1OC` [Example 353, (R)-1-(4-(2-(3,4-dimethoxyphenyl)-3-(2,2,2-trifluoroethyl)-1H-indol-5-yl)piperidin-1-yl)-3-hydroxybutan-1-one]: the IC50 in assay [1] is 40000 nM; in assay [2] it was 229 nM.

For the compound `CNC(=O)CN1CCC(c2ccc3[nH]c(-c4ccc(OC)c(OC)c4)c(CC(F)F)c3c2)CC1` [Example 401, 2-(4-(3-(2,2-difluoroethyl)-2-(3,4-dimethoxyphenyl)-1H-indol-5-yl)piperidin-1-yl)-N-methylacetamide], the results for the IC50 in assay [1] and in assay [2] were 5290 nM and 132 nM, respectively.

As to `COc1ccc(-c2[nH]c3ccc(C4CCN(CC(=O)N(C)C5CCN(C)C5)CC4)cc3c2CC(F)(F)F)cc1OC` (stereo not shown) [Example 370, 2-(4-(2-(3,4-dimethoxyphenyl)-3-(2,2,2-trifluoroethyl)-1H-indol-5-yl)piperidin-1-yl)-N-methyl-N-(1-methylpyrrolidin-3-yl)acetamide], the IC50 in assay [1] was determined as 399 nM; in assay [2], 27 nM.

`COc1ccc(-c2[nH]c3ccc(C4CCN(C(=O)Cc5cccnc5)CC4)cc3c2CC(F)(F)F)cc1OC` [Example 335, 1-(4-(2-(3,4-dimethoxyphenyl)-3-(2,2,2-trifluoroethyl)-1H-indol-5-yl)piperidin-1-yl)-2-(pyridin-3-yl)ethan-1-one]: the IC50 in assay [1] came to 15300 nM; in assay [2], 331 nM.

With `COc1ccc(-c2[nH]c3ccc(C4CCN(CC(=O)NCCc5ccc(S(N)(=O)=O)cc5)CC4)cc3c2CC(F)(F)F)cc1OC` [Example 384, 2-(4-(2-(3,4-dimethoxyphenyl)-3-(2,2,2-trifluoroethyl)-1H-indol-5-yl)piperidin-1-yl)-N-(4-sulfamoylphenethyl)acetamide], the values for the IC50 in assay [1] and in assay [2] were 2310 nM and 150 nM, respectively.

As for `COc1ccc(-c2[nH]c3ccc(C4CCN(CC(=O)NCCCN(C)C)CC4)cc3c2CC(F)(F)F)cc1OC` [Example 382, 2-(4-(2-(3,4-dimethoxyphenyl)-3-(2,2,2-trifluoroethyl)-1H-indol-5-yl)piperidin-1-yl)-N-(3-(dimethylamino)propyl)acetamide], the IC50 in assay [1] worked out at 555 nM; in assay [2], 17 nM.

In the case of `COc1ccc(-c2[nH]c3ccc(C4CCN(C(=O)CCC(=O)N(C)C)CC4)cc3c2CC(F)(F)F)cc1OC` [Example 346, 4-(4-(2-(3,4-dimethoxyphenyl)-3-(2,2,2-trifluoroethyl)-1H-indol-5-yl)piperidin-1-yl)-N,N-dimethyl-4-oxobutanamide], the IC50 in assay [1] was found to be 2940 nM; in assay [2], 213 nM.

Turning to `COc1ccc(-c2[nH]c3ccc(C4CCN(CC(=O)N(C)CCCN(C)C)CC4)cc3c2CC(F)(F)F)cc1OC` [Example 365, 2-(4-(2-(3,4-dimethoxyphenyl)-3-(2,2,2-trifluoroethyl)-1H-indol-5-yl)piperidin-1-yl)-N-(3-(dimethylamino)propyl)-N-methylacetamide], the IC50 in assay [1] worked out at 190 nM; in assay [2], 14 nM.

`COc1ccc(-c2[nH]c3ccc(C4CCN(CC(=O)N5CC[C@H](N(C)C)C5)CC4)cc3c2CC(F)(F)F)cc1OC` [Example 374, (S)-2-(4-(2-(3,4-dimethoxyphenyl)-3-(2,2,2-trifluoroethyl)-1H-indol-5-yl)piperidin-1-yl)-1-(3-(dimethylamino)pyrrolidin-1-yl) ethan-1-one]: the 50% inhibitory concentration (IC50) amounted to 252 nM in assay [1] and 9 nM in assay [2].

Consider `CCN(CC)C(=O)C1CCCN(CC(=O)N2CCC(c3ccc4[nH]c(-c5ccc(OC)c(OC)c5)c(C)c4c3)CC2)C1` (stereo not shown) [Example 404, 1-(2-(4-(2-(3,4-dimethoxyphenyl)-3-methyl-1H-indol-5-yl)piperidin-1-yl)-2-oxoethyl)-N,N-diethylpiperidine-3-carboxamide], for which the IC50 in assay [1] was 8640 nM; in assay [2], 3150 nM.

Take `COc1ccc(-c2[nH]c3ccc(C4CCN(C(=O)[C@@H]5CCCN5C(C)=O)CC4)cc3c2CC(F)(F)F)cc1OC` [Example 336, (S)-1-(2-(4-(2-(3,4-dimethoxyphenyl)-3-(2,2,2-trifluoroethyl)-1H-indol-5-yl)piperidine-1-carbonyl)pyrrolidin-1-yl)ethan-1-one]: the values for the 50% inhibitory concentration (IC50) in assay [1] and in assay [2] were 27800 nM and 359 nM, respectively.

For the origin of these results see US11180474B2 (BRISTOL-MYERS SQUIBB COMPANY, priority 2016, dated 2021).
